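Briefly, cells in 96-well plates were exposed to five compound concentrations for 48 h, and endpoints were estimated by linear interpolation. GI50 marks 50% less growth.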 Calls of active or inactive are those of the source. Cut-off read from the data, not from the text of the source: active = GI50 up to about 1.1 µM and inactive = higher.
Tests used:
Assay in all cases: NCI anticancer screen, dose series, 48 h
HOP-92 = test system: HOP-92
SN12C = test system: SN12C
M19-MEL = test system: M19-MEL
IGROV-1 = test system: IGROV-1
A549 = test system: A549
TK-10 = test system: TK-10
NCI-H226 = test system: NCI-H226
NCI-H460 = test system: NCI-H460
OVCAR-4 = test system: OVCAR-4
SNB-19 = test system: SNB-19
OVCAR-8 = test system: OVCAR-8
COLO 205 = test system: COLO 205
UO-31 = test system: UO-31
CCRF-CEM = test system: CCRF-CEM
SK-MEL-5 = test system: SK-MEL-5
KM12 = test system: KM12
SK-MEL-2 = test system: SK-MEL-2
SF-539 = test system: SF-539
SF-268 = test system: SF-268
OVCAR-3 = test system: OVCAR-3
M14 = test system: M14
RXF 631 = test system: RXF 631
A498 = test system: A498
SW-620 = test system: SW-620
LXFL 529 = test system: LXFL 529
MOLT-4 = test system: MOLT-4
EKVX = test system: EKVX
HL-60 = test system: HL-60
ACHN = test system: ACHN
NCI-H23 = test system: NCI-H23
DLD-1 = test system: DLD-1
HOP-62 = test system: HOP-62
HCT-116 = test system: HCT-116
UACC-62 = test system: UACC-62
DMS-114 = test system: DMS-114
SF-295 = test system: SF-295
786-0 = test system: 786-0
SK-OV-3 = test system: SK-OV-3
HCT-15 = test system: HCT-15
KM-20L2 = test system: KM-20L2
HT-29 = test system: HT-29
RPMI-8226 = test system: RPMI-8226
Malme-3M = test system: Malme-3M
NCI-H522 = test system: NCI-H522
UACC-257 = test system: UACC-257
XF498 = test system: XF498
OVCAR-5 = test system: OVCAR-5
DMS-273 = test system: DMS-273
SK-MEL-28 = test system: SK-MEL-28
K562 = test system: K562
CAKI-1 = test system: CAKI-1
SNB-75 = test system: SNB-75
U-251 = test system: U-251
SNB-78 = test system: SNB-78
SR = test system: SR
LOX IMVI = test system: LOX IMVI
HCC 2998 = test system: HCC 2998

O=C1C2=C(c3ccccc31)C(c1ccc([N+](=O)[O-])cc1)NC(S)=N2 (stereo not drawn)
GI50 (HOP-92): 51.1 µM (inactive) | GI50 (SN12C): 47.4 µM (inactive) | GI50 (M19-MEL): 78.9 µM (inactive) | GI50 (IGROV-1): 50 µM (inactive) | GI50 (A549): 48.5 µM (inactive) | GI50 (TK-10): > 100 µM (inactive) | GI50 (NCI-H226): 19.2 µM (inactive) | GI50 (NCI-H460): 67.8 µM (inactive) | GI50 (OVCAR-4): 42.6 µM (inactive) | GI50 (SNB-19): 97.3 µM (inactive) | GI50 (OVCAR-8): > 10 µM (inactive) | GI50 (COLO 205): > 100 µM (inactive) | GI50 (UO-31): 31.8 µM (inactive) | GI50 (CCRF-CEM): 38.7 µM (inactive) | GI50 (SK-MEL-5): 27.4 µM (inactive) | GI50 (KM12): 87.7 µM (inactive) | GI50 (SK-MEL-2): 96.8 µM (inactive) | GI50 (SF-539): > 100 µM (inactive) | GI50 (SF-268): 42.2 µM (inactive) | GI50 (OVCAR-3): 49.9 µM (inactive) | GI50 (M14): 91.2 µM (inactive) | GI50 (RXF 631): > 100 µM (inactive) | GI50 (A498): > 100 µM (inactive) | GI50 (SW-620): 81.1 µM (inactive) | GI50 (LXFL 529): 41 µM (inactive) | GI50 (MOLT-4): 35.4 µM (inactive) | GI50 (EKVX): > 100 µM (inactive) | GI50 (HL-60): 35.6 µM (inactive) | GI50 (ACHN): 70 µM (inactive) | GI50 (NCI-H23): 38.5 µM (inactive) | GI50 (DLD-1): 69 µM (inactive) | GI50 (HOP-62): > 100 µM (inactive) | GI50 (HCT-116): 38.5 µM (inactive) | GI50 (UACC-62): 43.5 µM (inactive) | GI50 (DMS-114): 36.8 µM (inactive) | GI50 (SF-295): 58.6 µM (inactive) | GI50 (786-0): > 100 µM (inactive) | GI50 (SK-OV-3): > 100 µM (inactive) | GI50 (HCT-15): 51.9 µM | GI50 (KM-20L2): > 100 µM (inactive) | GI50 (HT-29): > 100 µM (inactive) | GI50 (RPMI-8226): 30.2 µM (inactive) | GI50 (Malme-3M): 80.7 µM (inactive) | GI50 (NCI-H522): 30.5 µM (inactive) | GI50 (UACC-257): > 100 µM (inactive) | GI50 (XF498): 31.5 µM (inactive) | GI50 (OVCAR-5): > 100 µM (inactive) | GI50 (DMS-273): 59.4 µM (inactive) | GI50 (SK-MEL-28): 59.3 µM (inactive) | GI50 (K562): 49.1 µM (inactive) | GI50 (CAKI-1): > 100 µM (inactive) | GI50 (SNB-75): 23.9 µM (inactive) | GI50 (U-251): > 100 µM (inactive)

CN1CCCN2CCN(C)CCCN(CC1)CC2
GI50 (HOP-92): > 100 µM (inactive) | GI50 (SN12C): > 100 µM (inactive) | GI50 (M19-MEL): > 100 µM (inactive) | GI50 (SNB-78): > 100 µM (inactive) | GI50 (IGROV-1): > 100 µM (inactive) | GI50 (NCI-H226): > 100 µM (inactive) | GI50 (NCI-H460): > 100 µM (inactive) | GI50 (OVCAR-4): > 100 µM (inactive) | GI50 (COLO 205): > 100 µM (inactive) | GI50 (UO-31): > 100 µM (inactive) | GI50 (CCRF-CEM): > 100 µM (inactive) | GI50 (SK-MEL-2): > 100 µM (inactive) | GI50 (SF-539): > 100 µM (inactive) | GI50 (SF-268): > 100 µM (inactive) | GI50 (M14): > 100 µM (inactive) | GI50 (RXF 631): > 100 µM (inactive) | GI50 (A498): > 100 µM (inactive) | GI50 (LXFL 529): > 100 µM (inactive) | GI50 (MOLT-4): > 100 µM (inactive) | GI50 (HL-60): > 100 µM (inactive) | GI50 (NCI-H23): > 100 µM (inactive) | GI50 (SR): > 100 µM (inactive) | GI50 (DLD-1): > 100 µM (inactive) | GI50 (HOP-62): > 100 µM (inactive) | GI50 (HCT-116): > 100 µM (inactive) | GI50 (UACC-62): > 100 µM (inactive) | GI50 (DMS-114): > 100 µM (inactive) | GI50 (786-0): > 100 µM (inactive) | GI50 (SK-OV-3): > 100 µM (inactive) | GI50 (RPMI-8226): > 100 µM (inactive) | GI50 (Malme-3M): > 100 µM (inactive) | GI50 (LOX IMVI): > 100 µM (inactive) | GI50 (NCI-H522): > 100 µM (inactive) | GI50 (XF498): > 100 µM (inactive) | GI50 (DMS-273): > 100 µM (inactive) | GI50 (SK-MEL-28): > 100 µM (inactive) | GI50 (HCC 2998): > 100 µM (inactive) | GI50 (K562): > 100 µM (inactive) | GI50 (CAKI-1): > 100 µM (inactive) | GI50 (SNB-75): > 100 µM (inactive)

— ChEMBL document CHEMBL1201862, “PubChem BioAssay data set” (2004)
